Measured values: patent US20250154112A1, “A PREPARATION OF QUINAZOLINEDIONES AND USE THEREOF” (COUNCIL OF SCIENTIFIC AND INDUSTRIAL RESEARCH AN INDIAN …, priority 2021, published 2025)
≈ marks a conversion by molar mass, not a printed value.

Legend:
ATGL [1] = assay: Western blot of ATGL level in HepG2 cells after compound treatment; format: cell-based; conditions: 24 hours; for ATGL level (Western Blot): 50 nM to 5 μM dose dependent, with respect to control; for induction of ATGL (Western Blot): 5 μM
Protocol: (§1) HepG2 cells were treated with the compounds 5, 8, 11, 59, 62, 91, 94 (50 nM, 100 nM, 200 nM, 500 nM, 1 μM and 5 μM for dose dependent assays) for 24 hours. After removing media from the cells, the wells were washed with 1×PBS twice to remove any remnant media. Cells were then lysed in lysis buffer containing 50 mM Tris-HCl (pH 7.4), 100 mM NaCl, 1 mM EDTA, 1 mM EGTA, 1% Triton X-100 and protease inhibitor cocktail (Millipore, Billierica, MA, USA). Following centrifugation at 20,000 g for 20 minutes, the protein solution was extracted from the cells. Protein was estimated using Bradford assay. Bradford's reagent (BioRad) was diluted in 1:4 ratio in double distilled water. 2 μl of protein sample was added to 100 μl of the reagent and absorbance was measured at 595 nm. 30 μg of protein was diluted in lysis buffer. 1X loading buffer diluted from 5X stock containing 250 mM Tris-HCl (pH 6.8), 10% SDS, 50% glycerol, 0.1% bromophenol Blue and 10% β-mercaptoethanol was added. The protein samples were then heated at 95° C. for 10 minutes, cooled and centrifuged at 12,000 g for 2 minutes prior to loading.
(§2) For western blotting, the proteins were resolved in 10% SDS PAGE (discontinuous buffer system). 1X running buffer containing SDS, Tris Base and Glycine was used to run the gel at 80V for approximately 2 hours. Transfer was done using PVDF membrane (Millipore) having pore size of 0.45 μm. 1X transfer buffer containing Tris-Base, Glycine and 20% methanol was used for wet transfer. Transfer was done at 90V for 3 hours. Following transfer, the PVDF membrane containing the proteins were washed in 1×PBST comprising of 1×PBS and 1% Tween 20 (Sigma Aldrich). The membrane was then incubated for 1 hour at room temperature in 5% skim milk powder to block the non-specific sites. Following multiple washes with 1×PBST to wash away any remaining blocking buffer, the required primary antibody (COP1 [BethylLaboraties], ATGL [Cell Signalling Technology] or Actin[Cell Signalling Technology]) prepared with 1×PBST, 1% Bovine Serum Albumin and 0.04% Sodium Azide was added to the membrane and incubated overnight at 4° C. The next day, the membrane was again washed multiple times with 1×PBST to remove any unbound primary antibody. The membrane was then incubated with goat anti-rabbit secondary antibody (Genei) for 1 hour at room temperature and washed again for multiple times with 1×PBST. The membrane was then developed using Clarity™ ECL Western Blotting Substrate (BioRad) and viewed in ChemiDoc (BioRad).
as §1, with “62, 65,” for “62,”, “at” for “(50 nM, 100 nM, 200 nM, 500 nM, 1 μM and”, “μM” for “μM for dose dependent assays)”, “cocktail 1” for “cocktail”

ATGL [2] = assay: Fold change in ATGL by densitometric analysis; format: cell-based; conditions: fold change of ATGL with respect to control, normalized with actin
Protocol: Densitimetric analysis was performed by image J to calculate the fold change of ATGL with respect to control. The values were normalized with actin.

[3] = Determination of EC50 (in-vitro)
COP1 = biological target: T1, COP1 (Homo sapiens, UniProt Q8NHY2); assay: Western blot of COP1 level in HepG2 cells after compound treatment; format: cell-based; conditions: 5 μM, 24 hours
T1 construct: endogenous in cells; host or cells: HepG2
Protocol: as §1, with “62, 65,” for “62,”, “at” for “(50 nM, 100 nM, 200 nM, 500 nM, 1 μM and”, “μM” for “μM for dose dependent assays)”, “cocktail 1” for “cocktail”
as §2

Plasma stability assay = format: in vitro ADME; conditions: 1 μM, 37° C.
Protocol: 1 mM Stock of test compound was prepared from 10 mM initial stock solution of compounds by diluting 10 μL of 10 mM stock with 90 μL of DMSO. Then 10 μL of 1 mM stock was diluted with 90 μL of DMSO to give 100 μM concentration. The frozen plasma was thawed at room temperature and centrifuged at 1400 rpm at 4° C., for 15 minutes. Approximately 90% of the clear supernatant fraction was transferred to a separate tube and was used for the assay. Final working stock of 1 μM was prepared by diluting 3 μL of 100 μM with 297 μL of plasma. Plasma containing the test compound was incubated for 120 min at 37° C. in shaker with 500 rpm. 50 μL of aliquot of sample at 0, 15, 30, 60 and 120 minutes were precipitated with 150 μL of acetonitrile containing internal standard and centrifuged at 4000 rpm at 4° C. for 20 minutes. 120 μL of supernatant was diluted with 120 μL of water and analysed by LC-MS/MS.

Kinetic solubility = format: physicochemical; conditions: pH 7.4 phosphate buffer (PBS), aqueous buffer, kinetic from dmso stock, room temperature, 1.0% DMSO
Protocol: PBS sachet was dissolved in 0.9 L of Milli Q water and pH was adjusted to 7.4. Final volume was made up to 1 L with the water and stored at ambient temperature 21-25° C. […] 4 μL from the 50 mM stock solution were added to deep well plate containing 396 μL of pH 7.4 phosphate buffer, mixed and incubated for 24 hours at room temperature with constant mixing at 300 rpm. The plate was sealed well during the incubation process. After incubation, the samples were centrifuged for 20 min at 4000 rpm. The supernatant was analysed by HPLC-UV. The DMSO content in the sample was 1.0%. The final concentration of the compound in deep well plate was 500 μM.

[4] = Lipophilicity assay (octanol/buffer Log D); format: physicochemical; conditions: pH 7.4, n-octanol/sodium phosphate buffer
Protocol: 1.56 g NaH2PO4·2H2O was dissolved in 0.5 L water in a 1 L beaker. After adjusting pH to 7.4 using NaOH solution, the volume was made up to 1 L. Equal volumes of sodium phosphate buffer (10 mM, pH 7.4) and n-octanol were added to a separation funnel and mixed thoroughly by shaking and inverting the funnel several times. The two layers were allowed to separate for overnight and then dispensed in two separate glass bottles. 10 mM stock solution was prepared in 100% DMSO and stored at 4° C. 495 μL of organic phase (1-octanol) was added to each well of a 2 mL deep well plate, followed by 495 μL of buffer and 10 μL of test substance was added. The plate was incubated for 3 hrs at room temperature on a plate shaker at 500 rpm. After incubation, the samples were allowed to equilibrate for 20 min and then centrifuged at 4000 rpm for 30 min for complete phase separation and analysed by LC-UV. Log D=Log (area of octanol/area of buffer)

[5] = Metabolic stability using human liver microsomes (HLM); format: in vitro ADME
Protocol: 1 mM stock solution of test compound was prepared in DMSO and diluted with Acetonitrile:Water (1:1) to get a 100 μM working concentration. 100 mL of Milli Q water was added to K2HPO4 (1.398 g) and KH2PO4 (0.27 g) to get final pH 7.4 solution of potassium phosphate buffer. […] The above mixture was pre incubated for 15 minutes at 37° C. After pre incubation, 32.5 μL of the mixture was added to 17.5 μL of buffer, this was incubated for 60 minutes at 37° C. [60 min Without Cofactor (NADPH)]. 16.25 μL of the pre incubated mixture and 8.75 μL of cofactor was added to 150 μL of acetonitrile containing internal standard [0 min Sample]. 62 μL of cofactor was added to remaining pre incubation mixture [Incubation mixture]. 25 μL of incubation mixture at 0, 5, 15, 30, 60 min and 60 min without cofactor were precipitated with 150 μL of acetonitrile containing internal standard, vortexed and centrifuged at 4000 rpm at 4° C. for 20 minutes. 120 μL of supernatant was diluted with 120 μL of water and analyzed by LC-MS/MS [sample preparation].

T1 sequence (Q8NHY2 whole entry): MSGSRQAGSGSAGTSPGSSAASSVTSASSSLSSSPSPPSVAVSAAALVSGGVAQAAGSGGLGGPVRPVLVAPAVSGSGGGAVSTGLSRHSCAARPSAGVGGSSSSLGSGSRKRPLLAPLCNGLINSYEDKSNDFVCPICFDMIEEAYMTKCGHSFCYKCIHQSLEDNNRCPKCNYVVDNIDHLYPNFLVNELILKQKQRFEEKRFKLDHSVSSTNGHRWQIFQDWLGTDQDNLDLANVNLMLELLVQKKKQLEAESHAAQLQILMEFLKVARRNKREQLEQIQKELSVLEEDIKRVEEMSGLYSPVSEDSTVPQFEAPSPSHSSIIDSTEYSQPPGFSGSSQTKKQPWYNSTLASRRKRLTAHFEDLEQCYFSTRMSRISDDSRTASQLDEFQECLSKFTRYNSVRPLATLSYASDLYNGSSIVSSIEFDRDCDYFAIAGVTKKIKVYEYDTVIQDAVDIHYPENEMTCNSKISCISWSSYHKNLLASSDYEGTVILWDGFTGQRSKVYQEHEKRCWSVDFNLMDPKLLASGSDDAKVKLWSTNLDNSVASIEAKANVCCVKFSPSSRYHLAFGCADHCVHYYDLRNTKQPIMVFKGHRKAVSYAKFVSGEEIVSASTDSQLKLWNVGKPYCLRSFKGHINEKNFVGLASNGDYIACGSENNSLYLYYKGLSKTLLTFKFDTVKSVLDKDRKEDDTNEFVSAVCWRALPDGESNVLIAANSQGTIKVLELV

Row | Compound | ATGL level (Western Blot) (ATGL [1]) | induction of ATGL (Western Blot) (ATGL [1]) | Fold change (ATGL [2]) | EC50 [3] | stabilization of COP1 (Western Blot) (COP1) | Mean % remaining at 2 hrs in human Plasma (Plasma stability assay) | solubility kinetic at 24 hours (Kinetic solubility) | LogD @ pH 7.4 [4] | % QH (Well stirred model) [5] | logD [4]
1 | COCCn1c(=O)c2cc(NC(=O)Nc3cccc(C(C)=O)c3)ccc2n(C)c1=O [Compound 8, 1-(3-acetylphenyl)-3-(3-(2-methoxyethyl)-1-methyl-2,4-dioxo-1,2,3,4-tetrahydroquinazolin-6-yl)urea] | increased ATGL level | ability to induce ATGL | 1.34 | 0.0178 µM | stabilize the COP1 | – | – | – | – | –
2 | COCCn1c(=O)c2cc(NC(=O)Nc3cccc(C(C)=O)c3)ccc2n(C(C)C)c1=O [Compound 11, 1-(3-acetylphenyl)-3-(1-isopropyl-3-(2-methoxyethyl)-2,4-dioxo-1,2,3,4-tetrahydroquinazolin-6-yl)urea] | increased ATGL level | ability to induce ATGL | 1.25 | 0.1 µM | stabilize the COP1 | 80.80% | 0.0028 mg/mL (≈ 6.39 µM) | 2.67 | 40.30% | –
3 | COCCn1c(=O)c2cc(NC(=O)Nc3cccc(C(C)=O)c3)ccc2n(CCN2CCCC2)c1=O [Compound 59, 1-(3-acetylphenyl)-3-(3-(2-methoxyethyl)-2,4-dioxo-1-(2-(pyrrolidin-1-yl)ethyl)-1,2,3,4-tetrahydroquinazolin-6-yl)urea] | increased ATGL level | ability to induce ATGL | 1.18 | 0.209 µM | stabilize the COP1 | 32.80% | 0.124 mg/mL (≈ 252 µM) | 2.58 | 17.46% | –
4 | COCCn1c(=O)c2cc(NC(=O)Nc3cccc(C(C)=O)c3)ccc2n(CCN2CCOCC2)c1=O [Compound 65, 1-(3-acetylphenyl)-3-(3-(2-methoxyethyl)-1-(2-morpholinoethyl)-2,4-dioxo-1,2,3,4-tetrahydroquinazolin-6-yl)urea] | – | ability to induce ATGL | 1.44 | 0.05 µM | stabilize the COP1 | 48.20% | 0.0208 mg/mL (≈ 40.8 µM) | – | 62.0% | 2.08
5 | COCCn1c(=O)c2cc(NC(=O)Nc3cccc(C(C)=O)c3)ccc2n(CCCN2CCCCC2)c1=O [Compound 91, 1-(3-acetylphenyl)-3-(3-(2-methoxyethyl)-2,4-dioxo-1-(3-(piperidin-1-yl)propyl)-1,2,3,4-tetrahydroquinazolin-6-yl)urea] | increased ATGL level | ability to induce ATGL | 1.17 | – | stabilize the COP1 | – | – | – | – | –
6 | COCCc1ccc(OCC(O)CNC(C)C)cc1 (stereo not shown) [Metroprolol, reference compound] | – | – | – | – | – | – | – | −0.04 | – | –
7 | CC(C)[N+](C)(CCOC(=O)C1c2ccccc2Oc2ccccc21)C(C)C [Propantheline, reference compound] | – | – | – | – | – | 1.70% | – | – | – | –
